In brackets after ≈: the same amount, converted by molar mass. Like-named read-outs stand apart in the source and are kept apart here.
Key:
[1] = Membrane permeability (Papp) across Caco-2 cell monolayer, apical to basolateral; type: in vitro ADME; settings: human, Caco-2, apical to basolateral, 37° C.
Experimental: (§1) Determination of membrane permeability in all examples described herein was accomplished by the following procedure. This procedure is also used to determine whether a given prodrug falls within the scope of those claims given herein which relate to membrane permeability.
(§2) Caco-2 cells were seeded on Costar™ 12 mm diameter, 0.4 μm pore size transwell filters, and were cultured at 37° C., 5% CO2 in a humidified tissue culture chamber.
(§3) DMEM was equilibrated as a transport buffer in 37° C. water bath an hour before experiment. The cells were then equilibrated in transport buffer for 1 hr at 37° C.
(§4) Dosing solution (10 μM) was prepared by adding a 20 μL aliquot of a 10 mM stock solution of the prodrug to 20 mL of transport buffer.
(§5) Transport across Caco-2 cell monolayer was measured at 37° C., in the apical to basolateral direction (n=3).
(§6) Transport buffer was removed from both apical and basolateral compartment of filters. Dosing solution (0.2 mL) was added to the apical compartment of the cell layers on transwell filters, and 0.8 ml fresh pre-warmed transport buffer was added to basolateral compartment. Timing was started for transport, and at 5, 20, and 60 min after transport started, sample fluid (400 μL) was collected from the basolateral compartment. Fresh transport buffer (400 μL) was added back to the basolateral compartment, and the fluid was thoroughly mixed.
(§7) Transport samples, dosing solution, and standards(100 μL) each were mixed with 100 μl of a 500 ng/ml internal standard (Lansoprazole-D) for LC-MS/MS analysis, and part of each sample (100 μL) was vortexed and transferred into glass LC-MS/MS vials for analysis.
(§8) The apparent permeability coefficient (Papp, cm/sec), otherwise known herein as the membrane permeability, is determined from the following relationship: Papp=J/(ACo) where J (pmol/min) is the transport rate, meaning the rate of prodrug movement through the cell layer, A (cm^2) is the filter surface area, and Co (μM) is the initial dosing concentration.
(§9) The transport rate J, is calculated as the slope of the linear regression fit for the transport amount over time data using Microsoft Excel® 97 SR-2 (Microsoft Corp. Redmond, Wash.).
(§10) Lucifer yellow (LY) was used as a paracellular permeability reference standard to determine integrity of cell layers used in the experiments. LY transport in the apical to basolateral direction was carried out in the same manner as described above. Fluorescence level in basolateral fluid sampled at 5, 20, and 60 min post dose was determined using Fluostar Galaxy (BMG Labtechnologies, Durham, N.C.) at excitation/emission wavelengths of 485/520 nm. A standard curve covering the range from 0.002 to 0.5 mg/mL is constructed to quantify the amount of LY in the transport sample to calculate permeability coefficient (Papp).

[2] = Systemic half-life after oral or intravenous administration in rats; type: in vivo, rats (Sprague-Dawley); settings: for half-life: Sprague-Dawley, rat, blood; for half-life / Systemic omeprazole half-life / Rat T1/2 PPI: rats
Experimental: (§11) Blood concentrations of the compounds omeprazole, lansoprazole, pantoprazole, rabeprazole, and test compounds were quantified using an achiral liquid chromatography tandem mass spectrometry method (LC-MS/MS). Systemic pharmacokinetic parameters were determined for omeprazole or lansoprazole using non-compartmental analysis in Watson® version 6.3, available from InnaPhase Corporation, Philadelphia, Pa.

[3] = Systemic half-life after oral or intravenous administration in dogs; type: in vivo, dogs (beagle); settings: for half-life: beagle, dog, blood; for Dog T1/2 Prodrug: half-life of intact prodrug, NC = plasma concentration of prodrug too low to calculate half-life, or undetected
Experimental: as §11

[4] = somewhat buffer dependent, Kromer et al., Ekpe et al., cited from earlier work
Caco-2 cells = test: Membrane permeability (Papp) across Caco-2 cell monolayer, apical to basolateral; type: in vitro ADME; settings: Caco-2, apical to basolateral, 10 μM, 37° C.
Experimental: as §1, §2, §3, §4, §5, §6, §7, §8, §9, §10

[5] = Hygroscopicity on storage; type: physicochemical; settings: 14 days of storage at 25° C. at 75% relative humidity
Experimental: The physicochemical properties of compound 1 were analyzed.

[6] = Solubility profile in buffered aqueous solutions; type: physicochemical; settings: 25° C.
Source text: While not intending to be bound in any way by theory, it is believed that this improvement in solubility is due to the deprotonation of a sufficient quantity of the acid.

[7] = Stability profile in buffered aqueous solutions; type: physicochemical; settings: 25° C.
[8] = Degradation in simulated gastric fluid; type: physicochemical; settings: simulated gastric fluid (USP, pepsin); pH 1.2
Experimental: Simulated gastric fluid was prepared as specified by USP (http://www.uspnf.com/uspnf/usp26nf21/default.htm, Reagents>Solutions>Test Solutions>Gastric Fluid, Simulated). To make 200 mL of simulated gastric fluid, 0.4 g of sodium chloride and 0.64 g of purified pepsin, with an activity of 800 to 2500 units per mg of protein, was dissolved in 1.4 mL of hydrochloric acid and sufficient water. The solution was adjusted to the appropriate pH with hydrochloric acid.
The pH dependence of the half-life of compound 1 in the simulated gastric fluid is depicted in Table 4A.

[9] = Systemic omeprazole after enteric-coated or regular capsules in dogs; type: in vivo; settings: Dog, oral capsule of sodium salt of compound 1
Experimental: (§12) The bioavailability of compound 1 in enterically coated and non enterically coated dosage forms was investigated for dogs and monkeys. Regular and enteric-coated size 3 HPMC capsules (Capsugel, Morris Plains, N.J.) containing compound 1 were prepared by placing the appropriate amount of the sodium salt of compound 1 in the capsule. The enteric-coating material was prepared by dissolving cellulose acetate phthalate in a mixture of isopropyl alcohol and dichloromethane. The entire capsule was dipped in the enteric-coating material, and the isopropyl alcohol and dichloromethane were allowed to evaporate. The dosage forms were administered to the animals and the concentration of the omeprazole in the blood was determined as described in the oral bioavailability determination of Example 2. The maximum concentration of omeprazole (Cmax) and the total area under the curve (AUC) for the animals receiving both enterically coated and non-enterically coated oral dosage forms is presented in Table 4B. In both dogs and monkeys, both the Cmax and the AUC are higher for the non-enterically coated dosage form.

[10] = Systemic omeprazole after enteric-coated or regular capsules in monkeys; type: in vivo; settings: Monkey, oral capsule of sodium salt of compound 1
Experimental: as §12

[11] = Oral administration of solid dosage form to a person suffering from heartburn; type: in vivo; settings: 40 mg compound 1, 50% as sodium salt, oral daily
Experimental: A solid dosage form comprising 40 mg of compound 1, having 50% of the prodrug in the form of the sodium salt, is orally administered daily to a person suffering from heartburn. Relief of pain begins to occur within about 1 day, and continues as long as the person takes the dosage form.

[12] = oral solution, systemic half-life of the proton pump inhibitor, unit inferred, read-out: Rat T1/2 PPI (converted)
[13] = po, Table 2D, read-out: t1/2 (systemic half-life in dogs after oral administration) (converted)
[14] = po, oral solution, systemic half-life of the proton pump inhibitor, unit inferred, read-out: Dog T1/2 PPI (converted)
[15] = intravenous, equivalent omeprazole dose 1 mg/kg
[16] = oral, equivalent omeprazole dose 10 mg/kg
[17] = oral solution, systemic half-life of the proton pump inhibitor, unit inferred
[18] = pH 3, Citric Acid (0.1 M)/Na2HPO4 (0.2 M)
[19] = pH 5, Citric Acid (0.1 M)/Na2HPO4 (0.2 M)
[20] = pH 7, sodium phosphate (0.1-0.2 M)
[21] = pH 9, sodium phosphate (0.1-0.2 M)
[22] = pH 7.4, sodium phosphate (0.1-0.2 M)
[23] = pH 10, sodium phosphate (0.1-0.2 M)

COc1ccc2[nH]c([S+]([O-])Cc3ncc(C)c(OC)c3C)nc2c1 (stereo not shown) [Omeprazole, reference compound]
Papp A→B at 60 min, 10 μM [1]: 13 ×10⁻⁶ cm/s
half-life ([2]; intravenous, equivalent omeprazole dose 1 mg/kg, read-out: Systemic omeprazole half-life (converted)): 9 min
half-life [2, 12]: 18.5 min
half-life ([2]; oral, equivalent omeprazole dose 10 mg/kg, read-out: Systemic omeprazole half-life (converted)): 18.6 min
half-life ([3]; iv, 1 mg/kg, intravenous, equivalent omeprazole dose 1 mg/kg, read-out: Systemic omeprazole half-life (converted)): 36 min
half-life ([3]; po, 10 mg/kg, oral, equivalent omeprazole dose 10 mg/kg, read-out: Systemic omeprazole half-life (converted)): 42 min
half-life [3, 13]: 42 min
half-life [3, 14]: 41.8 min
typical half-life (aqueous stability) ([4]; pH 5): about 1 hour
typical half-life (aqueous stability) ([4]; pH 7): about 40 hours

Cc1c(OCC(F)(F)F)ccnc1C[S+]([O-])c1nc2ccccc2[nH]1 (stereo not shown) [Lansoprazole, reference compound]
Papp A→B at 60 min, 10 μM [1]: 15 ×10⁻⁶ cm/s
half-life [2, 12]: 30.6 min
half-life [3, 13]: 34.2 min
half-life [3, 14]: 34.4 min

COc1ccc2c(c1)nc([S+]([O-])Cc1ncc(C)c(OC)c1C)n2S(=O)(=O)c1ccc(OCC(=O)O)cc1 (stereo not shown) [Compound 1]
Permeability (Caco-2 cells): 0.12 ×10⁻⁶ cm/s
Prodrug in the bloodstream 5 minutes after intravenous administration ([2]; rats (Table 2A study), intravenous, 5 minutes): not detected
Systemic omeprazole half-life [2, 15]: 10.8 min
Systemic omeprazole half-life [2, 16]: 102 min
Systemic omeprazole half-life [3, 15]: 60 min
Dog T1/2 PPI [3, 17]: 125 min
t1/2 (systemic half-life in dogs after oral administration) ([3]; oral, Table 2D): 144 min
Systemic omeprazole half-life [3, 16]: 144 min
weight gain [5]: 9%
Solubility ([6]; pH 1, 0.1 M HCl): 1.8 mg/mL (≈ 3.22 mM)
Solubility [6, 18]: 0.4 mg/mL (≈ 0.715 mM)
Solubility [6, 19]: >50 mg/mL
Solubility [6, 20]: >50 mg/mL
Solubility [6, 21]: >50 mg/mL
Degradation Rate Constant (k) ([7]; pH 1, 0.1 M HCl): 0.194 h⁻¹
Half-life (t1/2) ([7]; pH 1, 0.1 M HCl): 3.6 h
Shelf life (t90%) ([7]; pH 1, 0.1 M HCl): 0.5 h
Degradation Rate Constant (k) [7, 18]: 0.009 h⁻¹
Half-life (t1/2) [7, 18]: 78.0 h
Shelf life (t90%) [7, 18]: 11.9 h
Degradation Rate Constant (k) [7, 19]: 0.008 h⁻¹
Half-life (t1/2) [7, 19]: 89.2 h
Shelf life (t90%) [7, 19]: 13.6 h
Degradation Rate Constant (k) [7, 20]: 0.002 h⁻¹
Half-life (t1/2) [7, 20]: 286.8 h
Shelf life (t90%) [7, 20]: 43.6 h
Degradation Rate Constant (k) [7, 22]: 0.002 h⁻¹
Half-life (t1/2) [7, 22]: 291.2 h
Shelf life (t90%) [7, 22]: 44.3 h
Degradation Rate Constant (k) [7, 21]: 0.030 h⁻¹
Half-life (t1/2) [7, 21]: 23.0 h
Shelf life (t90%) [7, 21]: 3.5 h
Degradation Rate Constant (k) [7, 23]: 0.298 h⁻¹
Half-life (t1/2) [7, 23]: 2.3 h
Shelf life (t90%) [7, 23]: 0.4 h
Half-life in Simulated Gastric Fluid [8]: 180 min
AUC Omeprazole/Dose ([9]; Enteric Coating): 82.2 ± 18.4 ng·h/mL/mg/kg
Cmax Omeprazole/Dose ([9]; Enteric Coating): 22.5 ± 7.3 ng/mL/mg/kg
AUC Omeprazole/Dose ([9]; Regular Capsule): 91.3 ± 32.9 ng·h/mL/mg/kg
Cmax Omeprazole/Dose ([9]; Regular Capsule): 29.2 ± 11.8 ng/mL/mg/kg
AUC Omeprazole/Dose ([10]; Enteric Coating): 18.9 ± 7.9 ng·h/mL/mg/kg
Cmax Omeprazole/Dose ([10]; Enteric Coating): 6.09 ± 1.04 ng/mL/mg/kg
AUC Omeprazole/Dose ([10]; Regular Capsule): 19.7 ± 8.8 ng·h/mL/mg/kg
Cmax Omeprazole/Dose ([10]; Regular Capsule): 14.0 ± 17.1 ng/mL/mg/kg
Relief of pain begins to occur [11]: ≤ 1 days

COc1ccc(S(=O)(=O)n2c([S+]([O-])Cc3nccc(OCC(F)(F)F)c3C)nc3ccccc32)cc1C(=O)O (stereo not shown) [Compound 8]
Permeability (Caco-2 cells): 0.23 ×10⁻⁶ cm/s
Rat T1/2 PPI [2, 17]: 108 min
Dog T1/2 PPI [3, 17]: 64.8 min
t1/2 (systemic half-life in dogs after oral administration) ([3]; oral, Table 2D): 66 min

COc1ccc2c(c1)nc([S+]([O-])Cc1ncc(C)c(OC)c1C)n2S(=O)(=O)c1cccc(C(=O)O)c1 (stereo not shown) [Compound 6]
Permeability (Caco-2 cells): 0.067 ×10⁻⁶ cm/s
Rat T1/2 PPI [2, 17]: 116 min
Dog T1/2 Prodrug ([3]; oral solution, unit inferred): 18.2 min
Dog T1/2 PPI [3, 17]: 115 min
t1/2 (systemic half-life in dogs after oral administration) ([3]; oral, Table 2D): 114 min

COc1ccc2c(c1)nc([S+]([O-])Cc1ncc(C)c(OC)c1C)n2S(=O)(=O)c1ccc(OCC(C)(C)C(=O)O)cc1 (stereo not shown) [Compound 3]
Permeability (Caco-2 cells): 0.38 ×10⁻⁶ cm/s
Rat T1/2 PPI [2, 17]: 106 min
Dog T1/2 Prodrug ([3]; oral solution, unit inferred): 18.7 min
Dog T1/2 PPI [3, 17]: 48.8 min
t1/2 (systemic half-life in dogs after oral administration) ([3]; oral, Table 2D): 48.6 min
